These results are taken from patent US5773239A, “Mannosidase inhibitors, process for their preparation and their use as therapeutic agents” (Mount Sinai Hospital Corporation., priority 1995, dated 1998).

The subject of test [1] is MDAY-D2 tumor cells. Kind of test: L-PHA toxicity assay (inhibition of oligosaccharide processing in cells). It counts as cell-based, mouse. The conditions noted are these: for IC50 for inhibition of Golgi oligosaccharide processing, higher / activity as inhibitors of Golgi oligosaccharide processing in viable MDAY-D2 tumor cells: compared to SW; for IC50: Mus musculus, read-out: IC50 for Inhibition of L-PHA Toxicity. On the procedure:
MDAY-D2 tumor cells were inoculated into 96 well micro-test plates at 2×10^4 cells/well, and containing serial dilutions of SW or SW analogues in MEM plus 10% FCS. The cells were cultured for 18-20 hr, followed by the addition of L-PHA at 25 μg/ml for an additional 24 hr. Cell proliferation was measured by adding 0.5 μCi/well of ^3 H-thymidine for 3-4 hr, harvesting onto glass fibre disks using a Titertek harvester and the disks were counted in a liquid scintillation counter. The apparent IC50 values for SW and the analogues are the drug concentrations showing 50% protection from L-PHA toxicity; that is 50% ^3 H-thymidine incorporated compared with cells grown in the absence of L-PHA. In experiments using the esterase inhibitor diethyl p-nitrophenyl phosphate, the compound was added to MDAY-D2 cells 4 hr prior to the α-mannosidase inhibitors and was present through-out the experiment.

In a further test the test system is bone marrow cells. Put plainly: Bone marrow cell proliferation assay. It counts as in vivo, C57B1/6J mice. The conditions noted are these: 10 ug/injection i.p. twice daily, four days; mean +/- S.E. of 4 experiments. On the procedure: Pathogen-free C57B1/6J mice, 8-14 weeks old were maintained according to NIH ethical guidelines. Groups of 2-3 mice received intraperitoneal injections of the PBS, SW or designated analog twice daily for 4 days. […] Eighteen hours after the last SW injection, mice were sacrificed and BM cells were harvested. Marrow cell suspensions were prepared under sterile conditions using femurs and tibias of both legs from each donor. Bone marrow (BM) cells were flushed from the marrow cavities with ice-cold RPMI 1640, washed and resuspended at desired concentrations in RPMI-1640 supplemented with 5% FCS, penicillin (100 U/ml) and streptomycin (100 μg/ml). Cell viability was monitored by staining with trypan blue. The ability of the analogues to stimulate BM proliferation was measured by two methods. First, cellularity was determined by directly counting BM cells after they were flushed from the tibias and femurs. Second, enhancement in proliferation was assessed by the increase in the proportion of BM progenitor cells present in the BM preparations as measured by colony formation in soft agar (CFU). BM cells were processed according to the procedures of the GIBCO-BRL Mouse Bone Marrow Stem Cell Proliferation Kit, which employs suspensions of mononuclear cells in a semi-solid methylcellulose medium containing FCS. 2-mercaptoethanol and the growth factors, interleukin-3 (IL-3) (75 U/ml) and erythropoietin (20 U/ml). The plates were incubated for 10-14 days at 37° C. in a humidified atmosphere of 5% CO2 and 95% air, and colonies consisting of at least 40 cells were enumerated using an inverted microscope. The potential colonies that form in the semi-solid medium are the granulocyte, erythrocyte, monocyte, megakaryocyte (ie. CFU-GEMM); the granulocyte, macrophage (ie. CFU-GM), and the burst forming unit-erythroid(ie BFUe).
Mice were given twice daily intraperitoneal injections of PBS, SW or the analogues at 10 ug/injection. After four days of injections, BM cells were flushed from the femurs and tibias and counted. CFUs growing in soft agar consisting of at least 40 cells were enumerated. The results are the mean +/-S.E. of 4 experiments.

Test [2] has as its system B16F10 melanoma cells. Kind of test: Lung colonization assay. It counts as in vivo, C57B1/6J mice. Particulars: for Survivors at day 28: injected i.v.; for survival of mice 28 days after injection of treated tumor cells: versus 2-toluoyloxy-SW treated or untreated B16F10 cells. On the procedure: B16F10 melanoma cells were maintained in log-phase growth in MEM plus 10% FCS (Gibco) either untreated or treated for 48 hr with SW or analogues of SW. Cells were harvested with trypsin/EDTA (Gibco), washed and 10^5 melanoma cells in 100 μl of phosphate buffered saline (PBS) were injected into the lateral tail vein of male C57B1/6J mice. The lungs were removed from the mice and tumor nodules were counted at death or on day 28 when the experiment was terminated.
B16F10 melanoma cells were injected into the lateral tail vein of C57B1/6 mice at 10^5 cells/mouse. […] The experiment was terminated on day 28 and lung colonies in the mice were counted.

The test system of test [3] is B16F10 melanoma cells. Particulars: 1000 ng/ml; cited from earlier work.
Another test has as its target lysosomal mannosidase. Put plainly: Lysosomal mannosidase assay (pH 5.0). It counts as biochemical. Particulars: para-nitrophenyl α-mannose. As to the method:
The assay for rat liver Golgi α-mannosidase II contained 5 mM para-nitrophenylα-mannose, 40 mM sodium acetate pH 5.6, plus serially diluted test compouunds and mannosidase enzyme in a total volume of 50 ul, in 96 well plates. Plates were incubated 45 min at 37° C., then the reaction was stopped with 50 μl of 0.5M sodium carbonate. The absorbance of reaction products was read at 405 nm. The lysosomal mannosidase was done in the same procedure but with 40 mM sodium acetate buffer pH 5.0. The numbers in the table are IC50 values in μM for inhibition of mannosidase activity.

In test [4] the test system is MDAY-D2 tumor cells. The conditions noted are these: cited from earlier work.
Where [5] appears, read: MDAY-D2 tumor cells, L-PHA 25 μg/ml, 50% protection by 3H-thymidine incorporation.
[6] abbreviates: tumor cells cultured 48 hr with 0.02 ug/ml drug.
[7] abbreviates: tumor cells cultured 48 hr with 0.1 ug/ml drug.
[8] abbreviates: tumor cells cultured 48 hr with 1.0 ug/ml drug.

Where two headings read alike, the source gives them in different places. A value given as a limit tells only on which side of the number the result lay.

Broadly, the IC50 is the concentration needed to halve the response being measured.

For `O=C(OC1CN2CCCC(O)C2C1O)c1ccccc1` (stereo not drawn) [2-benzoyloxy-SW], the “IC50 for inhibition of Golgi oligosaccharide processing, higher” value (“IC50 for inhibition” below) with MDAY-D2 tumor cells [1] (MDAY-D2 tumor cells) is “at least 10 times”. The IC50 in the test with MDAY-D2 tumor cells [1] (setting [5]) worked out at 1800 nM. In addition, in the test on bone marrow cells, the BM cellularity is given as 5.77 ± 0.00 cells × 10^7 and the CFU turned out to be 421 ± 44 colonies/10^7 cells.

As to `CCCC(=O)OC1CN2CCCC(O)C2C1O` (stereo not drawn) [2-butanoyloxy-SW], the IC50 in the test with MDAY-D2 tumor cells [1] (setting [5]) was found to be 230 nM. Moreover, the “activity as inhibitors of Golgi oligosaccharide processing in viable MDAY-D2 tumor cells” value (from here on “activity as inhibitors”) in the test with MDAY-D2 tumor cells [1] is on record as “retained full activity”. Moreover, in the test on bone marrow cells, the BM cellularity came to 3.80 ± 0.91 cells × 10^7 and the CFU stood at 545 ± 59 colonies/10^7 cells.

For `CCCCCCCC(=O)OC1CN2CCCC(O)C2C1O` (stereo not drawn) [2-octanoyloxy-SW], the IC50 in the test on MDAY-D2 tumor cells [1] (setting [5]) turned out to be 230 nM. Besides, the “activity as inhibitors” value in the test with MDAY-D2 tumor cells [1] is “retained full activity”. The same compound returned a CFU in the test with bone marrow cells of 482 ± 22 colonies/10^7 cells. Further, the “lung colonies (mean ± range)” value is 9 (5-17) with B16F10 melanoma cells [2] (setting [6]), 13 (8-20) in the test on B16F10 melanoma cells [2] (setting [7]) and 1 (0-2) in the test with B16F10 melanoma cells [2] (setting [8]). For the same compound, the “Survivors at day 28” value with B16F10 melanoma cells [2] (setting [6]) was 3/5; in the test with B16F10 melanoma cells [2] (setting [7]) it was 3/5; with B16F10 melanoma cells [2] (setting [8]), 2/5. In addition, the “survival of mice 28 days after injection of treated tumor cells” value in the test with B16F10 melanoma cells [2] is “significantly higher”.

Consider `O=C(OC1CN2CCCC(O)C2C1O)c1ccc([N+](=O)[O-])cc1` (stereo not drawn) [2-p-nitrobenzoyloxy-SW], for which, in the test with MDAY-D2 tumor cells [1] (setting [5]), the IC50 was found to be 230 nM. The “activity as inhibitors” value with MDAY-D2 tumor cells [1] was “retained full activity”. In the test on bone marrow cells, this compound returned a BM cellularity of 3.60 ± 0.42 cells × 10^7 and a CFU of 380 ± 7 colonies/10^7 cells.

As to `Cc1ccc(C(=O)O[C@@H]2CN3CCC[C@@H](O)[C@@H]3[C@@H]2O)cc1` [2-toluoyloxy-SW], the “IC50 for inhibition” value in the test with MDAY-D2 tumor cells [1] (MDAY-D2 tumor cells) is “at least 10 times”. The IC50 in the test on MDAY-D2 tumor cells [1] (setting [5]) came to 3400 nM. In the test on bone marrow cells, this compound showed a BM cellularity of 3.40 ± 0.25 cells × 10^7 and a CFU of 384 ± 25 colonies/10^7 cells. Moreover, in the test with B16F10 melanoma cells [2] (setting [7]), the “lung colonies (mean ± range)” value is on record as more than 100 and the “Survivors at day 28” value was 0/5. In the test with B16F10 melanoma cells [2] (setting [8]), the “lung colonies (mean ± range)” value is given as more than 100 and the “Survivors at day 28” value is recorded as 0/5.

As for `OC1CN2C[C@@H](O)[C@@H](O)[C@H]2[C@H](O)C1O` (stereo partly drawn) [6,7-dihydroxy-SW], in the test with MDAY-D2 tumor cells [1] (setting [5]), the IC50 is more than 5000 nM. In the test with bone marrow cells, this compound came in with a BM cellularity of 5.20 ± 0.03 cells × 10^7 and a CFU of 538 ± 5 colonies/10^7 cells.

For `CCCCCCCCCCCCCC(=O)OC1CCCN2CC(O)C(O)C12` (stereo not drawn) [8-myristinoyloxy-SW], the “IC50 for inhibition” value with MDAY-D2 tumor cells [1] (MDAY-D2 tumor cells) is given as “at least 10 times”. Moreover, in the test with MDAY-D2 tumor cells [1] (setting [5]), the IC50 was more than 2500 nM. In the test with bone marrow cells, the BM cellularity stood at 4.80 ± 0.24 cells × 10^7 and the CFU turned out to be 226 ± 6 colonies/10^7 cells.

`CCCCCCCCCCCCCCCC(=O)OC1CCCN2CC(O)C(O)C12` (stereo not drawn) [8-palmitoyloxy-SW]: the “IC50 for inhibition” value in the test on MDAY-D2 tumor cells [1] (MDAY-D2 tumor cells) is listed as “at least 10 times”. Moreover, the IC50 in the test with MDAY-D2 tumor cells [1] (setting [5]) was more than 2500 nM. In the test on bone marrow cells, this compound gave a BM cellularity of 5.10 ± 0.57 cells × 10^7 and a CFU of 553 ± 32 colonies/10^7 cells.

`O[C@H]1[C@H]2[C@H](O)CCCN2C[C@H]1O` [SW, Swainsonine, reference compound]: the IC50 came out at 200 nM in the test on MDAY-D2 tumor cells [1] (MDAY-D2, 3 h) and 82 nM against lysosomal mannosidase. Moreover, the “inhibition of organ colonization by B16F10 melanoma cells” value in the test on B16F10 melanoma cells [3] is more than 90%. In the test on bone marrow cells, this compound registered a BM cellularity of 4.50 ± 0.42 cells × 10^7. For the same compound, the CFU in the test with bone marrow cells was 540 ± 34 colonies/10^7 cells. Also, the “lung colonies (mean ± range)” value in the test on B16F10 melanoma cells [2] (setting [6]) is 23 (15-31); in the test on B16F10 melanoma cells [2] (setting [7]), 5 (2-10); in the test on B16F10 melanoma cells [2] (setting [8]), 3 (0-4). Further, the “Survivors at day 28” value was 2/5 with B16F10 melanoma cells [2] (setting [6]), 4/5 in the test with B16F10 melanoma cells [2] (setting [7]) and 4/5 in the test with B16F10 melanoma cells [2] (setting [8]). For the same compound, in the test on B16F10 melanoma cells [2], the “survival of mice 28 days after injection of treated tumor cells” value was “significantly higher”. The “L-PHA concentration to which cells cultured in the presence of SW are resistant” value in the test on MDAY-D2 tumor cells [4] is more than 100 µg/mL.
